From patent US20140341857A1, “COMBINATION OF ONCOLYTIC AD[…] HISTONE DEACETYLASE INHIBITORS” (INSTITUT GUSTAVE ROUSSY, priority 2011, published 2014)

Key:
Format in all cases: cell-based
[1] = tested on: p21; assay: p21 expression, Western blot; conditions: HCT116, VPA IC25 and IC50, 24, 48, 72 h
Experimental: Colon cancer cells HT29 or HCT116 (5·10^5) in MW6 were treated with Δ24 CRAd (MOI 15.6 vp/cell), with or without VPA (IC25 and IC50). At 24, 48, and 72 h p.i., tumor cells were harvested and protein extracts were prepared in RIPA buffer (10 mM Tris base pH 8.8, NaCl 150 mM, EDTA 1 mM, NP-40 1%, deoxycholic acid 1%) supplemented with mini EDTA proteases (ROCHE LABORATORY). Proteins (25 μg) were run into a NuPage (INVITROGEN, France), transferred onto a nitrocellulose membrane, and probed with anti-p21/Waf1 mouse monoclonal antibody (EA10, CALBIOCHEM) and anti-actin antibody (AC-15, SIGMA-ALDRICH), followed by HRP-conjugated secondary antibody. p21 expression was quantified by IMAGE-J software and expressed as arbitrary units relative to untreated cells.

[2] = tested on: γH2AX; assay: γH2AX expression, Western blot; conditions: CRAd MOI 15.6, VPA 10mM (the IC50 of HT29; cell line and time not given)
Experimental: Colon carcinoma HT29 and HCT116 cells (5·10^5) in MW6 were treated with Δ24 CRAd (MOI 15.6 vp/cell), with or without VPA (IC25 and IC50). At indicated time points p.i., the cells were harvested and protein extracts were prepared in RIPA buffer (10 mM Tris base pH 8.8, NaCl 150 mM, EDTA 1mM, NP-40 1%, deoxycholic acid 1%) supplemented with mini EDTA proteases (ROCHE LABORATORY). Protein extracts were sonicated and centrifuged. Then, protein extracts (25 μg) were run into a NuPage (INVITROGEN, France), transferred onto a nitrocellulose membrane, and probed with anti-phospho-H2AX (Ser139) antibody (clone JBW301, MILLIPORE) or anti-actin antibodies (AC-15, SIGMA-ALDRICH) followed by HRP-conjugated secondary antibody. γH2AX was quantified by IMAGE-J software and expressed as arbitrary units relative to untreated cells.

[3] = tested on: γH2AX; assay: γH2AX expression, confocal microscopy in HT29 cells; conditions: HT29, 3 days, CRAd MOI 15.6, VPA IC25/IC50
Experimental: HT29 cells were seeded at 5·10^5 cells/well on 6-well plates and cultured overnight. Cells were treated with Δ24 CRAd (MOI 15.6 vp/cell), VPA (IC25, IC50) or both (CRAd+VPA), or with the non-replicative adenovirus AE18 during 72 h. Then non-adherent tumor cells and adherent tumor cells were detached with TrypLE™ Express (1X) (INVITROGEN) cytospined on slides (500 rpm, 5 min), washed with PBS and fixed with 4% paraformaldehyde for 30 min. After permeabilization with 0.5% Triton X-100 for 10 min, samples were blocked with 3% BSA for 30 min. Samples were exposed to primary antibodies (1:1,000 anti-γH2AX, for 1-2 h in PBS/BSA) followed by Alexa Fluor-conjugated secondary antibody staining for 1 h. When filamentous actin was also stained, tetramethyl-rhodamine B isothiocyanate-labeled phalloidin (SIGMA) was added with the secondary antibody incubation. Cells were washed four times with PBS after secondary antibody staining and then mounted on glass slides by using mounting medium with DAPI (VECTASHIELD; Vector Laboratories). All images were obtained by using the ZEISS LSM 510 confocal microscope.

[4] = tested on: Δ24 CRAd; assay: CRAd production in HT29 cells, plaque assay on 911 cells; conditions: HT29, CRAd MOI 15.6, VPA IC25 and IC50, 3 days
Experimental: Colon cancer HT29 cells (5·10^5) in 6-well plates were infected with Δ24 CRAd (MOI 15.6 vp/cell) alone or in combination with VPA (IC50 and IC25) in adequate medium with 2% FBS. After 1 h, 3 ml of growth medium with or without VPA was added. Then, cells were scrapped and cells and medium were harvested at different times post-infection (from day 1 to day 6). After submission of cells and medium to freeze-thaw cycles, the amount of infectious particles was determined by plaque assay on 911 cells and expressed as plaque forming unit (pfu)/ml.
In a second series of experimentations, HT29 cells (5·10^5 cells/well) in 6-well plates were infected with CRAd (MOI 15.6 vp/cell) with or without VPA (IC50 and IC25) in adequate medium supplemented with 2% FBS. After 1 h, 3 ml of growth medium with or without VPA was added. After 3 days, cells and medium were independently harvested and lysed by freeze-thaw cycles. Then, the amount of infectious particles was measured by plaque assay on 911 cells, and expressed as pfu/ml.

[5] = tested on: HT29 cells; assay: MTT cell survival after oncolytic adenovirus with or without HDACi; conditions: HT29, 3 days p.i., co-treatment with VPA and AE18
Experimental: Then the cells were treated with one of these HDACis (at concentrations in the range of IC50/2 and IC50) and transduced with the oncolytic adenovirus Δ24, at increasing multiplicity of infection (MOI). The survival of the cells at day 3 p.i. was evaluated using the MTT assay.
Colon carcinoma cells (HT29, HCT116, SW480, SW620) were plated in quadruplicates on 96-well plates (10^4 cells/well) and were treated with different MOI of Δ24 CRAd (ranging from 0 to 1000 vp/cell), VPA (0, IC25 or IC50) or a combination of CRAd and VPA. After 3 days, cell viability was measured with MTT assay and the results (means+SD) were expressed relative to non-infected cells treated with different VPA doses (0, IC25 and IC50). The results are representative of three experiments.
Colon carcinoma cells (HT29, HCT116) were treated in quadruplicates with Δ24 CRAd (MOI 15.6 vp/cell) without or with VPA (IC25 or IC50) and cell viability was measured at different time points thereafter using a MTT assay. The results (means+SD) were expressed relative to untreated or VPA (0, IC25 and IC50)-treated cells at the same time point. […] They are representative of two experiments.
The effects of a co-treatment with the oncolytic adenovirus Δ24 and the histone deacetylase inhibitor VPA on the survival of HT29 cells 3 days p.i. were compared with those of a co-treatment with VPA and the recombinant adenovirus AE18. […]

SMILES: CCCC(CCC)C(=O)O [VPA, Valproic Acid]
- increase in p21 expression compared to untreated cells [1]: up to 6 fold
- level of γH2AX relative to untreated cells [2]: 5.6 fold
- γH2AX expression (confocal microscopy) [3]: much less than CRAd
- viral content in cell-associated and extracellular fractions [4]: reduction of viral content
- effect of VPA on the cytotoxicity of the recombinant adenovirus AE18 [5]: no effect
